According to patent US9556165B2 (priority 2012, dated 2017):
Values after ≈ are worked out from the molar mass of the structure shown.

How the values were obtained:
Experiment in all cases: MIC determination, broth microdilution (CLSI)
Type in all cases: cell-based
H. influenzae ATCC 49247 = details: Haemophilus influenzae, ATCC49247, strain 13; read-out: strain 13 MIC
E. coli J62 = details: for MIC: Escherichia coli, J62, strain 17, read-out: strain 17 MIC
strain 20 = tested on: strain 20
E. cloacae 34654 = details: for MIC: Enterobacter cloacae, 34654, strain 3
strain 21 = tested on: strain 21
M. morganii 126/3048 = details: for MIC: Morganella morganii, 126/3048, strain 5
M. catarrhalis ICB489 = details: for MIC: Moraxella catarrhalis, ICB489, strain 12
S. maltophilia ICB7569 = details: Stenotrophomonas maltophilia, ICB7569, strain 10
S. aureus 133 = details: Staphylococcus aureus, 133, strain 11; read-out: strain 11 MIC
[1] = tested on: P. aeruginosa 2297-con (AmpC derepressed); details: for MIC: Pseudomonas aeruginosa, read-out: strain 8 MIC, strain 8
B. fragilis 6688 = details: Bacteroides fragilis, 6688, strain 15; read-out: strain 15 MIC
E. coli J62-TEM-3 = details: Escherichia coli, J62TEM3, read-out: strain 18 MIC, strain 18
K. pneumoniae 60 = details: for MIC: Klebsiella pneumoniae, 60, strain 2
P. aeruginosa PAO1 = details: for MIC: Pseudomonas aeruginosa, PAO1, strain 6
A. baumannii ATCC15308 = details: Acinetobacter baumannii, ATCC15308, strain 9
E. coli ATCC25922 = details: for MIC: Escherichia coli, ATCC25922, strain 1
strain 19 = tested on: strain 19
C. freundii K21/3034 = details: for MIC: Citrobacter freundii, K21/3034, strain 4
S. pneumoniae 113 = details: Streptococcus pneumoniae, 113, strain 14; read-out: strain 14 MIC
[2] = tested on: P. aeruginosa 2297 (AmpC wt); details: for MIC: Pseudomonas aeruginosa, strain 7

Row | Compound | MIC (H. influenzae ATCC 49247) | MIC (S. aureus 133) | MIC (B. fragilis 6688) | MIC (E. coli J62-TEM-3) | MIC (A. baumannii ATCC15308) | MIC (S. pneumoniae 113) | MIC (E. coli J62) | MIC (strain 20) | MIC (E. cloacae 34654) | MIC (strain 21) | MIC (M. morganii 126/3048) | MIC (M. catarrhalis ICB489) | MIC (K. pneumoniae 60) | MIC (P. aeruginosa PAO1) | MIC (E. coli ATCC25922) | MIC (strain 19) | MIC (C. freundii K21/3034) | MIC [1] | MIC [2] | other results
1 | C[C@H]1[C@H](NC(=O)/C(=N\OC(COc2ccc(C(=N)N)cc2)C(=O)O)c2csc(N)n2)C(=O)N1S(=O)(=O)O (mixture of isomers) [Example 26A, (2S and 2R)-2-({[(1Z)-1-(2-Amino-1,3-thiazol-4-yl)-2-{[(2S,3S)-2-methyl-4-oxo-1-sulfoazetidin-3-yl]amino}-2-oxoethylidene]amino}oxy)-3-(4-carbamidinoyl-phenoxy)propanoic acid] | 2 µg/mL | ≤ 0.063 µg/mL | 8 µg/mL | 32 µg/mL | 8 µg/mL | 32 µg/mL |  |  |  |  |  |  |  |  |  |  |  |  |  | strain 17 MIC (E. coli J62; strain 17): 0.125 µg/mL; strain 20 MIC (strain 20): 0.125 µg/mL; strain 3 MIC (E. cloacae 34654; strain 3): 0.125 µg/mL; strain 21 MIC (strain 21): 0.125 µg/mL; strain 5 MIC (M. morganii 126/3048; strain 5): ≦0.063 mg/L; strain 12 MIC (M. catarrhalis ICB489; strain 12): ≦0.063 mg/L; MIC (S. maltophilia ICB7569): 16 µg/mL; strain 8 MIC ([1]; strain 8): 8 µg/mL; strain 2 MIC (K. pneumoniae 60; strain 2): 0.031 µg/mL; strain 6 MIC (P. aeruginosa PAO1; strain 6): 1 µg/mL; strain 1 MIC (E. coli ATCC25922; strain 1): ≦0.063 mg/L; strain 19 MIC (strain 19): ≦0.063 mg/L; strain 4 MIC (C. freundii K21/3034; strain 4): ≦0.063 mg/L; strain 7 MIC [2]: 2 µg/mL
2 | C[C@H]1[C@H](NC(=O)/C(=N\OCCOc2ccc(C(=N)N)c(O)c2)c2csc(N)n2)C(=O)N1S(=O)(=O)O [Example 2, (2S,3S)-3-{[(2Z)-2-(2-Amino-1,3-thiazol-4-yl)-2-{[2-(4-carbamimidoyl-3-hydroxyphenoxy)ethoxy]imino}acetyl]amino}-2-methyl-4-oxoazetidine-1-sulfonic acid] | 0.5 µg/mL (≈ 0.948 µM) | 0.25 µg/mL (≈ 0.474 µM) | 16 µg/mL (≈ 30.3 µM) | 32 µg/mL (≈ 60.7 µM) | 4 µg/mL (≈ 7.58 µM) | 16 µg/mL (≈ 30.3 µM) | 0.25 µg/mL (≈ 0.474 µM) | 0.125 µg/mL (≈ 0.237 µM) | 0.25 µg/mL (≈ 0.474 µM) | 0.25 µg/mL (≈ 0.474 µM) | ≤ 0.063 µg/mL | ≤ 0.063 µg/mL | 0.125 µg/mL (≈ 0.237 µM) | 2 µg/mL (≈ 3.79 µM) | 0.125 µg/mL (≈ 0.237 µM) | 0.125 µg/mL (≈ 0.237 µM) | 0.125 µg/mL (≈ 0.237 µM) |  |  | MIC (S. maltophilia ICB7569): 0.125 µg/mL (≈ 0.237 µM)
3 | Cc1cc(OCCO/N=C(\C(=O)N[C@@H]2C(=O)N(S(=O)(=O)O)[C@H]2C)c2csc(N)n2)ccc1C(=N)N [Example 14, (2S,3S)-3-{[(2Z)-2-(2-Amino-1,3-thiazol-4-yl)-2-{[2-(4-carbamimidoyl-3-methylphenoxy)ethoxy]imino}acetyl]amino}-2-methyl-4-oxoazetidine-1-sulfonic acid] | 0.5 µg/mL (≈ 0.951 µM) | ≤ 0.063 µg/mL | 16 µg/mL (≈ 30.4 µM) | 32 µg/mL (≈ 60.9 µM) | 2 µg/mL (≈ 3.81 µM) | 8 µg/mL (≈ 15.2 µM) | 1 µg/mL (≈ 1.9 µM) | 0.5 µg/mL (≈ 0.951 µM) | 0.5 µg/mL (≈ 0.951 µM) | 0.5 µg/mL (≈ 0.951 µM) | 0.5 µg/mL (≈ 0.951 µM) | 0.25 µg/mL (≈ 0.476 µM) | 1 µg/mL (≈ 1.9 µM) | 4 µg/mL (≈ 7.61 µM) | 0.5 µg/mL (≈ 0.951 µM) | 0.5 µg/mL (≈ 0.951 µM) | 0.25 µg/mL (≈ 0.476 µM) | 32 µg/mL (≈ 60.9 µM) | 8 µg/mL (≈ 15.2 µM) | 
4 | C[C@H]1[C@H](NC(=O)/C(=N\OCC(C)(C)Oc2ccc(C(=N)N)cc2)c2csc(N)n2)C(=O)N1S(=O)(=O)O [Example 17, (2S,3S)-3-{[(2Z)-2-(2-Amino-1,3-thiazol-4-yl)-2-{[2-(4-carbamimidoylphenoxy)-2-methyl-propoxy]imino}acetyl]amino}-2-methyl-4-oxoazetidine-1-sulfonic acid] | 1 µg/mL (≈ 1.85 µM) | 2 µg/mL (≈ 3.71 µM) | 4 µg/mL (≈ 7.41 µM) | 32 µg/mL (≈ 59.3 µM) | 8 µg/mL (≈ 14.8 µM) | 2 µg/mL (≈ 3.71 µM) | 2 µg/mL (≈ 3.71 µM) | 2 µg/mL (≈ 3.71 µM) | 2 µg/mL (≈ 3.71 µM) | 2 µg/mL (≈ 3.71 µM) | ≤ 0.063 µg/mL | 2 µg/mL (≈ 3.71 µM) | 2 µg/mL (≈ 3.71 µM) | 8 µg/mL (≈ 14.8 µM) | 2 µg/mL (≈ 3.71 µM) | 1 µg/mL (≈ 1.85 µM) | 1 µg/mL (≈ 1.85 µM) | 32 µg/mL (≈ 59.3 µM) | 16 µg/mL (≈ 29.7 µM) | 
5 | C[C@H]1[C@H](NC(=O)/C(=N\OCCOc2ccc(C(=N)N)cc2Cl)c2csc(N)n2)C(=O)N1S(=O)(=O)O [Example 20, (2S,3S)-3-{[(2Z)-2-(2-Amino-1,3-thiazol-4-yl)-2-{[2-(4-carbamimidoyl-2-chlorophenoxy)ethoxy]imino}acetyl]amino}-2-methyl-4-oxoazetidine-1-sulfonic acid] | 0.5 µg/mL (≈ 0.916 µM) | 0.125 µg/mL (≈ 0.229 µM) | 16 µg/mL (≈ 29.3 µM) | 32 µg/mL (≈ 58.6 µM) | 2 µg/mL (≈ 3.66 µM) | 16 µg/mL (≈ 29.3 µM) | 2 µg/mL (≈ 3.66 µM) | 2 µg/mL (≈ 3.66 µM) | 2 µg/mL (≈ 3.66 µM) | 1 µg/mL (≈ 1.83 µM) | 2 µg/mL (≈ 3.66 µM) | 0.5 µg/mL (≈ 0.916 µM) | 2 µg/mL (≈ 3.66 µM) | 8 µg/mL (≈ 14.7 µM) | 2 µg/mL (≈ 3.66 µM) | 2 µg/mL (≈ 3.66 µM) | 1 µg/mL (≈ 1.83 µM) | 32 µg/mL (≈ 58.6 µM) | 8 µg/mL (≈ 14.7 µM) | 
6 | C[C@H]1[C@H](NC(=O)/C(=N\OCCOc2ccc(C(=N)N)nn2)c2csc(N)n2)C(=O)N1S(=O)(=O)O [Example 28, (2S,3S)-3-{[(2Z)-2-(2-Amino-1,3-thiazol-4-yl)-2-({2-[(6-carbamimidoylpyridazin-3-yl)oxy]ethoxy}imino)acetyl]amino}-2-methyl-4-oxoazetidine-1-sulfonic acid] | 0.5 µg/mL (≈ 0.974 µM) | 0.125 µg/mL (≈ 0.243 µM) | 8 µg/mL (≈ 15.6 µM) | 32 µg/mL (≈ 62.3 µM) | 0.5 µg/mL (≈ 0.974 µM) | 2 µg/mL (≈ 3.89 µM) | 0.25 µg/mL (≈ 0.487 µM) | 0.25 µg/mL (≈ 0.487 µM) | 0.125 µg/mL (≈ 0.243 µM) | 0.25 µg/mL (≈ 0.487 µM) | 0.125 µg/mL (≈ 0.243 µM) | 0.25 µg/mL (≈ 0.487 µM) | 0.125 µg/mL (≈ 0.243 µM) | 4 µg/mL (≈ 7.79 µM) | 0.125 µg/mL (≈ 0.243 µM) | 0.25 µg/mL (≈ 0.487 µM) | 0.125 µg/mL (≈ 0.243 µM) | 32 µg/mL (≈ 62.3 µM) | 8 µg/mL (≈ 15.6 µM) | 
7 | C[C@H]1[C@H](NC(=O)/C(=N\OCCOc2cnc(C(=N)N)cn2)c2csc(N)n2)C(=O)N1S(=O)(=O)O [Example 30, (2S,3S)-3-{[(2Z)-2-(2-Amino-1,3-thiazol-4-yl)-2-({2-[(5-carbamimidoylpyrazin-2-yl)oxy]-ethoxy}imino)acetyl]amino}-2-methyl-4-oxoazetidine-1-sulfonic acid] | 0.5 µg/mL (≈ 0.974 µM) | 0.125 µg/mL (≈ 0.243 µM) | 8 µg/mL (≈ 15.6 µM) | 16 µg/mL (≈ 31.2 µM) | 1 µg/mL (≈ 1.95 µM) | 4 µg/mL (≈ 7.79 µM) | 0.25 µg/mL (≈ 0.487 µM) | 0.25 µg/mL (≈ 0.487 µM) | 0.25 µg/mL (≈ 0.487 µM) | 0.25 µg/mL (≈ 0.487 µM) | ≤ 0.063 µg/mL | 0.25 µg/mL (≈ 0.487 µM) | ≤ 0.063 µg/mL | 4 µg/mL (≈ 7.79 µM) | 0.125 µg/mL (≈ 0.243 µM) | 0.25 µg/mL (≈ 0.487 µM) | ≤ 0.063 µg/mL | 32 µg/mL (≈ 62.3 µM) | 4 µg/mL (≈ 7.79 µM) | 
8 | C[C@H]1[C@H](NC(=O)/C(=N\OCCOc2nc(C(=N)N)cs2)c2csc(N)n2)C(=O)N1S(=O)(=O)O [Example 31, (2S,3S)-3-{[(2Z)-2-(2-Amino-1,3-thiazol-4-yl)-2-({2-[(4-carbamimidoyl-1,3-thiazol-2-yl)oxy]ethoxy}imino)acetyl]amino}-2-methyl-4-oxoazetidine-1-sulfonic acid] | 0.25 µg/mL (≈ 0.482 µM) | ≤ 0.063 µg/mL | 4 µg/mL (≈ 7.71 µM) | 32 µg/mL (≈ 61.7 µM) | 1 µg/mL (≈ 1.93 µM) | 8 µg/mL (≈ 15.4 µM) | 0.25 µg/mL (≈ 0.482 µM) | 0.25 µg/mL (≈ 0.482 µM) | 0.25 µg/mL (≈ 0.482 µM) | 0.25 µg/mL (≈ 0.482 µM) | 0.25 µg/mL (≈ 0.482 µM) | 0.25 µg/mL (≈ 0.482 µM) | ≤ 0.063 µg/mL | 8 µg/mL (≈ 15.4 µM) | 0.125 µg/mL (≈ 0.241 µM) | 0.125 µg/mL (≈ 0.241 µM) | ≤ 0.063 µg/mL | 32 µg/mL (≈ 61.7 µM) | 8 µg/mL (≈ 15.4 µM) | 
9 | C[C@H]1[C@H](NC(=O)/C(=N\OCCOc2ccc(C(=N)N)cc2N)c2csc(N)n2)C(=O)N1S(=O)(=O)O [Example 35, (2S,3S)-3-{[(2Z)-2-{[2-(2-Amino-4-carbamimidoylphenoxy)ethoxy]imino}-2-(2-amino-1,3-thiazol-4-yl)acetyl]amino}-2-methyl-4-oxoazetidine-1-sulfonic acid] | 1 µg/mL (≈ 1.9 µM) | 0.25 µg/mL (≈ 0.475 µM) | 16 µg/mL (≈ 30.4 µM) | 32 µg/mL (≈ 60.8 µM) | 2 µg/mL (≈ 3.8 µM) | 32 µg/mL (≈ 60.8 µM) | 4 µg/mL (≈ 7.6 µM) | 8 µg/mL (≈ 15.2 µM) | 4 µg/mL (≈ 7.6 µM) | 4 µg/mL (≈ 7.6 µM) | 1 µg/mL (≈ 1.9 µM) | 1 µg/mL (≈ 1.9 µM) | 2 µg/mL (≈ 3.8 µM) | 16 µg/mL (≈ 30.4 µM) | 2 µg/mL (≈ 3.8 µM) | 2 µg/mL (≈ 3.8 µM) | 2 µg/mL (≈ 3.8 µM) | 32 µg/mL (≈ 60.8 µM) | 16 µg/mL (≈ 30.4 µM) | 
